The term EC50 denotes the concentration giving half of the maximal effect. Usually IC50 stands for the concentration at which inhibition is half-maximal. Read a high IC50 as weaker potency in that assay.

This note sets out measurements from PubChem BioAssay AID179 (DTP/NCI, 2004).

Calls of active or inactive are those of the source.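 How the source made its calls: active means compounds giving half or more protection of infected cells from virus-caused growth loss, again on retest; inactive means the rest.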 A value given as a limit tells only on which side of the number the result lay.

This test concerns CEM cells HIV-1 protection, formazan growth assay. The experiment in a line: NCI AIDS Antiviral Assay. The note with it: for IC50: measured here: growth of uninfected CEM cells. In short, it runs like this: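 Category rules: moderately active means at least 50% protection on retest, and confirmed active means 100% protection reproducibly. The underlying data came from a formazan growth assay in HIV-1-infected CEM cells.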

As for `COc1cccc(/C=N/[N-]C(N)=O)c1[O-].[OH3+].[Pd+2]`, the EC50 is over 21.9 µM and the IC50 is over 21.9 µM.
For the molecule `CCOP(=O)(OCC)/C(C#N)=C/c1nc[nH]c1C`, the EC50 is over 200 µM and the concentration for half-maximal inhibition (IC50) is over 200 µM.
In the case of `COC(=O)N/N=C(/CCC(=O)Nc1ccc(C)c(C)c1)CC(=O)C(C)(C)C`, the EC50 is over 661 µM and the IC50 is over 661 µM.
As for `CNc1ccc(Cl)cc1S(=O)(=O)c1ccccc1[N+](=O)[O-]`, the concentration giving a half-maximal response (EC50) was 0.562 µM and the IC50 came to 741 µM.
On the same counts, the results for `COC1=CC(=C(c2ccc(O)c(OC)c2)c2ccc(O)c(OC)c2)C=CC1=O` are over 200 µM and 3.55 µM.
In the same order, the values of `CC(C)(C)O/C=C1/C(=O)OC2C[C@@H](O[Si](C)(C)C(C)(C)C)CC12` (stereo not given in full) are over 200 µM and 120 µM.
Turning to `CCCCCCCCCCCC1CC(=O)NCCCN(C)CCCCN(C)CCCN1C` (stereo not given), the EC50 is over 200 µM and the 50% inhibitory concentration (IC50) stood at 1.12 µM.
As for `O=c1oc2ccc(Br)cc2cc1-n1nnc2cc([N+](=O)[O-])ccc21`, the EC50 is over 17.4 µM and the IC50 was over 17.4 µM.
For the molecule `NNC(=O)c1ccccc1SSc1ccccc1C(=O)NN`, the EC50 was 0.537 µM and the concentration for half-maximal inhibition (IC50) is 3.55 µM.
In the same order, the values of `C[n+]1ccc(-c2nc(-c3cc[n+](C)cc3)nc(-c3cc[n+](C)cc3)n2)cc1` are over 200 µM and 77.6 µM.
As to `CC(C)(C)C(=O)/C=C/c1ccc(C#N)cc1`, the outcome was inactive and the concentration for half-maximal inhibition (IC50) amounted to 38.9 µM.
`CCOC(=O)C[C@@]12CCCN[C@]1(C)CCc1ccccc12`: the outcome was inactive.
On to `O=c1[nH]c2c3ccccc3ccc2c2cc3c(cc12)OCO3`, for which the result was inactive.
Turning to `COc1cc2oc(-c3ccccc3)cc(=O)c2c(O)c1C`, the EC50 was over 33.1 µM and the concentration for half-maximal inhibition (IC50) was over 33.1 µM.
For the molecule `O=C(CO)C1CC2C=CC1C2` (stereo not given), the outcome was inactive.
As for `CN1C(=O)N/C(=C\c2ccc(S(=O)(=O)N/N=C/c3ccccc3)cc2)C1=O`, the EC50 is over 200 µM and the IC50 is 5.25 µM.
On the same counts, the results for `COc1ccccc1NC(=O)C1=C(C)NC(C)=C(C(=O)Nc2ccccc2OC)C1c1ccc(C)cc1` are over 7.59 µM and over 7.59 µM.
For the molecule `CCOC(=O)c1c(C)cc(C)nc1[S][Sn]([Br])([Br])[S]c1nc(C)cc(C)c1C(=O)OCC`, the EC50 is 40.7 µM and the IC50 was found to be 51.3 µM.
On the same counts, the results for `O=C(Nc1sccc1S(=O)(=O)c1ccccc1)c1cccnc1` are over 200 µM and 4.47 µM.
In the same order, the values of `O=CCOCc1cc2c(cc1Br)OCO2` are over 200 µM and 5.25 µM.
In the same order, the values of `Cc1cc(Cl)ccc1N=NC(=O)NNc1ccc(Cl)cc1C` are over 200 µM and 52.5 µM.
Turning to `N#CC1([N+](=O)[O-])C=C1c1ccccc1` (stereo not given), the EC50 was over 200 µM and the IC50 stood at 89.1 µM.
On the same counts, the results for `O=C(Cn1c(-c2ccccc2)cc2ccccc21)N1CCOCC1` are over 200 µM and over 200 µM.
On the same counts, the results for `COc1cccc(C2c3cc4c(cc3OC(N3CCCCC3)C2C)OCO4)c1OC` (stereo not given) are over 200 µM and 1.7 µM.
In the same order, the values of `COC1C(OC(=O)c2ccc(C)[nH]2)C(O)C(Oc2ccc3c(O)c(NC(=O)c4c[nH]c(C(=O)Nc5c(O)c6ccc(OC7OC(C)(C)C(OC)C(OC(=O)c8ccc(C)[nH]8)C7O)c(C)c6oc5=O)c4C)c(=O)oc3c2C)OC1(C)C` (stereo not given) are over 28.2 µM and 7.41 µM.
Consider `COc1cc(OC)c2c(c1)OC(=O)C(C(C)=O)C2` (stereo not given), for which the EC50 was over 200 µM and the half-inhibitory concentration (IC50) is over 200 µM.
As for `CCOc1ccc(NC2=CC(=O)C(=O)c3ccccc32)cc1`, the EC50 was over 9.55 µM and the half-inhibitory concentration (IC50) is over 9.55 µM.
For `CC/C=C\C/C=C\C/C=C\C/C=C\CCC(=O)OC(COC(=O)CCCCCCC/C=C\C/C=C\C/C=C\CC)COC1OC(CO)C(O)C(O)C1O` (stereo not given), the EC50 was over 38 µM and the IC50 is over 38 µM.
Take `CCc1n[nH]c(=O)n1NC(=O)c1ccccc1C(=O)O`: the EC50 was over 200 µM and the half-maximal inhibitory concentration (IC50) was over 200 µM.
As to `CC(=O)NNC(=S)N/C=C\c1nc2ccccc2[nH]c1=O`, the EC50 is over 200 µM and the IC50 was over 200 µM.
Turning to `C=CCN(c1cc(OC)c2[nH]c(C(=O)O)c(C)c2c1[N+](=O)[O-])S(C)(=O)=O`, the EC50 was over 200 µM and the IC50 was over 200 µM.
Consider `[Cu+2].[O-]/C(=N\N=C/c1cccc(F)c1)c1ccncc1.[O-]/C(=N\N=C\c1cccc(F)c1)c1ccncc1`, for which the EC50 is over 100 µM and the half-maximal inhibitory concentration (IC50) is 24.5 µM.
For `CSC1=C(C(=O)Nc2ccc(Cl)cc2)C(N)=NC1=O`, the EC50 is over 100 µM and the half-inhibitory concentration (IC50) stood at 74.1 µM.
For the molecule `COP(=N[Si](C)(C)C)(OC)OC`, the EC50 is over 200 µM and the IC50 is over 200 µM.
`O=Nn1ccccc1=Nc1ccccc1`: the EC50 was over 200 µM and the IC50 turned out to be 117 µM.
In the case of `CSc1nc(=S)[nH]c2c1c(C)nn2-c1ccccc1`, the EC50 is over 200 µM and the IC50 stood at 28.8 µM.
On the same counts, the results for `CCOC(=O)/C(F)=C/c1ccc(C#N)cc1` are over 33.1 µM and over 33.1 µM.
In the case of `COc1ccc(/C=C(/C(C)=O)C(=O)c2ccccc2)cc1`, the EC50 was over 129 µM and the IC50 was 38 µM.
On the same counts, the results for `COc1ccc2c3ccc4c(c3n(C)c2c1)C(=O)C=CC4=O` are over 3.55 µM and over 3.55 µM.
In the same order, the values of `Cc1cc(NC(=O)Nc2cc(F)ccc2F)no1` are over 200 µM and 123 µM.
In the same order, the values of `Cc1cn(C2CC(F)C(COC(=O)CCCCCCCCCCCBr)O2)c(=O)[nH]c1=O` (stereo not given) are 0.024 µM and 28.8 µM.
In the case of `CC(=O)NS(=O)(=O)c1ccc(NC(=O)c2ccccc2SC(=O)CCCC[n+]2ccccc2)cc1`, the EC50 was 1.78 µM and the IC50 was over 200 µM.
Regarding `C[C@]12CCC[C@H](OC=O)C1(O)C[C@H](C(=O)O)CC2` (stereo not given in full), the outcome was inactive.
`Cc1cccc(C)c1NC(=O)C(=O)Nn1c(NN)nc2ccccc2c1=O`: the EC50 was over 676 µM and the half-maximal inhibitory concentration (IC50) is 525 µM.
On to `CC(C)(C)N1CC1CNC(=O)C(=O)NCC1CN1C(C)(C)C` (stereo not given), for which the EC50 is over 200 µM and the half-inhibitory concentration (IC50) was 1.35 µM.
On the same counts, the results for `Clc1ccc(C(Cc2ccccc2)c2c(Cl)nc(N3CCNCC3)nc2Cl)cc1` (stereo not given) are over 200 µM and 9.12 µM.
As for `CCCCCCCCC(O)c1ccc(/C=C\C(O)CCCC(=O)O)s1` (stereo not given), the EC50 is over 63.1 µM and the concentration for half-maximal inhibition (IC50) was over 63.1 µM.
As to `O=C(/C=C\c1ccc(Cl)cc1Cl)c1cccs1`, the EC50 is over 200 µM and the IC50 was found to be 32.4 µM.
In the same order, the values of `C/C=C(\C)C(=O)c1c(OCC)cc(OCC)c2c(CCC)cc(=O)oc12` are over 126 µM and 1.91 µM.
In the same order, the values of `O=C(OCc1ccccc1)C1(N2CN(C3(C(=O)OCc4ccccc4)CCCC3)CN(C3(C(=O)OCc4ccccc4)CCCC3)C2)CCCC1` are over 200 µM and 35.5 µM.
With `COc1ccccc1NC1=NCC(C)S1` (stereo not given), the EC50 was over 200 µM and the IC50 is over 200 µM.
With `O=[N+]([O-])O.[Ga]`, the EC50 was over 100 µM and the IC50 was over 100 µM.
Consider `O=C(/C=C\c1cccc2ccccc12)c1ccc(Br)cc1`, for which the EC50 is over 3.09 µM and the IC50 was over 3.09 µM.
For `O=C1c2cccc3cc([N+](=O)[O-])cc(c23)C(=O)N1O`, the EC50 is over 200 µM and the IC50 was found to be 12 µM.
As to `COC(=O)c1cc(C#N)[nH]c1-c1ccsc1`, the EC50 is over 200 µM and the IC50 is 30.9 µM.
In the same order, the values of `COCn1cnc2c(=O)nc(SC)n(-c3ccccc3)c21` are over 200 µM and over 200 µM.
Consider `OCCN1CCN(CCO)Cc2ccccc2OCCOc2ccccc2C1`, for which the EC50 was over 245 µM and the IC50 stood at 97.7 µM.
For the molecule `CCOP(=O)(OCC)/C(C#N)=C/c1ccc(Cl)cc1`, the EC50 was over 316 µM and the half-inhibitory concentration (IC50) is 195 µM.
On the same counts, the results for `CCc1ccccc1NC(=O)Nc1cc(C)ccn1` are over 200 µM and 24 µM.
In the same order, the values of `CC(=O)c1ccc(OCC(O)CO)cc1` (stereo not given) are over 617 µM and over 617 µM.
In the same order, the values of `CC1(C)OC2OC3C(I)CN(C(=O)OCc4ccccc4)C3C2O1` (stereo not given) are over 200 µM and 110 µM.
For the molecule `CCCCCC(=O)C(C)C1=Nc2nnc(CCCCCCCc3nnc4n3C(=O)C(C(C)C(=O)CCCCC)=N4)n2C1=O` (stereo not given), the EC50 was over 2.45 µM and the 50% inhibitory concentration (IC50) is over 2.45 µM.
As for `COC(=O)N/N=C(/CCN1CCCC1)CC(c1ccccc1)c1c(O)c2ccccc2oc1=O` (stereo not given), the EC50 is over 89.1 µM and the IC50 stood at 83.2 µM.
Turning to `COc1csc([C@H]2CCC3[C@@H]4CC=C5C[C@@H](OC(=O)CCC(=O)O)CC[C@]5(C)C4CC[C@@]32C)n1` (stereo not given in full), the EC50 is over 51.3 µM and the 50% inhibitory concentration (IC50) was 32.4 µM.
On the same counts, the results for `CCCOC(=O)C1OC12CCCCC2` (stereo not given) are over 200 µM and over 200 µM.
In the same order, the values of `COc1cc2cc3c4c(cc(OC)c(OC)c4c2cc1OC)CCN3C(=O)CCC(=O)O` are over 200 µM and 123 µM.
In the same order, the values of `COc1ccc2c3c1OC1C4(OC)C=CC5(c6c(OC)ccc(O)c64)C(C2)N(C)CCC315` (stereo not given) are over 100 µM and 53.7 µM.
Turning to `O=C1N[C@H]2[C@H](CS[C@H]2CCCCC(=O)N(CCP(c2ccccc2)c2ccccc2)CCP(c2ccccc2)c2ccccc2)N1`, the EC50 is over 14.8 µM and the half-inhibitory concentration (IC50) was over 14.8 µM.
For `CC1=C(C(=O)Nc2ccc([N+](=O)[O-])cc2)C(c2ccccc2F)C(C(=O)Nc2ccc([N+](=O)[O-])cc2)=C(C)N1`, the EC50 was over 13.5 µM and the half-inhibitory concentration (IC50) was over 13.5 µM.
For `N#Cc1c(N2CCCC2)[nH]c(=O)[nH]c1=S`, the EC50 was over 200 µM and the IC50 was over 200 µM.
As to `Cc1cccc(C)c1NC(=O)CCCC(=O)C1CC(=O)CCC1=O` (stereo not given), the EC50 was over 550 µM and the 50% inhibitory concentration (IC50) is over 550 µM.
`Cc1ncc2c(n1)-c1ccccc1OC2O` (stereo not given): the EC50 was over 200 µM and the IC50 is over 200 µM.
